The subject of this assay is Radical scavenging activity. In words: Antioxidant activity assessed as DPPH free radical scavenging activity after 30 mins. It is filed as functional. On the technique in general: Loss of DPPH colour is used to gauge radical scavenging.

The text below walks through data of ChEMBL document CHEMBL1150630, “Oxidation, reduction, and methylation of carnosic acid by Nocardia” (J Nat Prod, 2002).

pIC50: −log10 of the molar value.

Broadly, the pIC50 is −log10 of the IC50, conventionally taken in molar units. With `COc1c(C(C)C)cc2c(c1O)[C@@]1(CO)CCCC(C)(C)[C@@H]1CC2`, the pIC50 is 4.08.

On to `Oc1cccc(O)c1O` [PYROGALLOL], for which the pIC50 is 4.42.

For the compound `CC(C)c1cc2c(c(O)c1O)[C@@]1(C(=O)O)CCCC(C)(C)[C@@H]1CC2` [CARNOSIC ACID], the pIC50 is 4.27.

As for `O=C1O[C@H]([C@@H](O)CO)C(O)=C1O` [ASCORBIC ACID], the pIC50 is 4.18.

With `CCCOC(=O)c1cc(O)c(O)c(O)c1` [PROPYL GALLATE], the pIC50 was 4.34.

Consider `CC1(C)CCC[C@@]23C(=O)OC(C[C@@H]12)c1cc(C(CO)CO)c(O)c(O)c13`, for which the pIC50 is 4.18.

As to `CC(C)c1cc2c(c(O)c1O)[C@@]13CCCC(C)(C)[C@@H]1C[C@@H]2OC3=O` [CARNOSOL], the pIC50 is 3.94.
